Results from patent publication US5958903A, “Galanthamine derivatives, and their pharmaceutical compositions” (priority 1995, dated 1999).

Target: T1, acetylcholinesterase (Electrophorus electricus, UniProt O42275)
T1 construct: purchased SIGMA C 2888; host or cells: electric organ of Electrophorus electricus
Assay: cholinesterase inhibitory activity: acetylcholinesterase activity by the Ellman method
Format: biochemical
Conditions: acetylthiocholine iodide substrate, DTNB, phosphate buffer pH 8, 25° C., absorbance at 412 nm; read-out: IC50 ± SD (inhibitory concentration at 50% activity of the enzyme)
Method: In order to measure the cholinesterase inhibitory activity of the compounds of the invention, the enzymatic activity of acetylcholinesterase is evaluated by the Ellman method (Biochemical Pharmacology, 1961, Vol. 7 pp 88-95, Ellman et al.).
The principle of the method comprises measuring the rate of thiocholine at the time of hydrolysis of the acetylcholine by the enzyme. The hydrolysis is accompanied by a continuous reaction between thiocholine and 5,5'-dithio-2-nitrobenzoic acid (DTNB) which leads to the formation of the yellow colored 5-thio-2-nitrobenzoate anion. The rate of the formation of the anion is measured by absorbance at 412 nm.
The material used is comprised of a 0.1 M (pH 8) phosphate buffer: Na2 HPO4 /NaH2 PO4, an enzyme: acetylcholinesterase from the electrical organ of the electric ray Electrophorus electricus (SIGMA C 2888) purified on Sephadex resin, a substrate: acetylthiocholine iodide 7.5 mM (21.67 mg/10 ml of phosphate buffer) and a reagant: 5,5'-dithio-2-nitrobenzoic acid (DTNB) 10 mM (39.6mg / 10 ml of phosphate buffer).
Thus 3 ml of phosphate buffer, 100 μl of DTNB, 2 μl enzyme, 3.3 μl of the compound according to the invention, and 200 μl of substrate are mixed at 25° C., subsequently the change of absorbance at 412 nm is measured immediately.

T1 sequence (O42275 24-633): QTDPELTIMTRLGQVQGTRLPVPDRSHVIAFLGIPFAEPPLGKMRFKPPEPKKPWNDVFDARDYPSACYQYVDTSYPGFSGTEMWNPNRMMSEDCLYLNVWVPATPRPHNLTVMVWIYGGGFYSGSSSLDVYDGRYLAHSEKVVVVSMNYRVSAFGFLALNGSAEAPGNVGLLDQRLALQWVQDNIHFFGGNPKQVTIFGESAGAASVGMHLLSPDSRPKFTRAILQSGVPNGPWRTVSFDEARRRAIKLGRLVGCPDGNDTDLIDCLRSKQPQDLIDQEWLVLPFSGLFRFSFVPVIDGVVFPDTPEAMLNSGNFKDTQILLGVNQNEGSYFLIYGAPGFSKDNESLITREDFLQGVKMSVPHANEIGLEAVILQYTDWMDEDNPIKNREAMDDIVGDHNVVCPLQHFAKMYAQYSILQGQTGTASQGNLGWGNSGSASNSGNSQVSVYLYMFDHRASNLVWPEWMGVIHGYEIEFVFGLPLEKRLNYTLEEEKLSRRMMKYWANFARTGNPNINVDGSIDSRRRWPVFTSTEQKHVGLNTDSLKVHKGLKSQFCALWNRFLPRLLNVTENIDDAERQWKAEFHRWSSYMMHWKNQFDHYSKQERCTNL

SMILES	IC50 [µM]
COc1ccc2c3c1O[C@H]1C[C@@H](O)C=C[C@@]31CC[N+](C)=C2 [Example 1, galanthaminium methanesulfonate]	0.08 ± 0.002
COc1ccc2c3c1O[C@H]1C[C@@H](O)C=C[C@@]31CC[N+](CCCCCCn1cccc1)=C2 [Example 11, 10-N-demethyl-10-N-(6'pyrrolohexyl)-galanthaminium bromohydrate]	0.17 ± 0.01
